Experimental data published in patent US6472418B1, “Non-peptide NK1 receptors antagonists” (Warner-Lambert Company, priority 1998, dated 2002).

Target: T1, Human NK1 Receptor (Homo sapiens, UniProt P25103)
T1 construct: endogenous in cells; host or cells: Human lymphoma IM9 cells (whole cells)
Test: In Vitro Human NK1 Receptor Binding Assay ([125I]Bolton-Hunter substance P displacement, IM9 cells)
Details: Human lymphoma IM9 cells, [125I]Bolton-Hunter substance P; Table 3, array-synthesis products; read-out: IC50 (nM) hNK1
Summary of the method: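 Radioligand displacement on whole IM9 human lymphoma cells (2.5×10^6 cells/mL) using [125I]Bolton-Hunter substance P (0.05-0.1 nM), 50 min at 21° C in Tris pH 7.4/MnCl2 buffer with protease inhibitors. Non-specific binding defined by […] [Sar9, Met(O2)11] substance P. Filtration, gamma counting, iterative curve fitting.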

T1 sequence (P25103 whole entry): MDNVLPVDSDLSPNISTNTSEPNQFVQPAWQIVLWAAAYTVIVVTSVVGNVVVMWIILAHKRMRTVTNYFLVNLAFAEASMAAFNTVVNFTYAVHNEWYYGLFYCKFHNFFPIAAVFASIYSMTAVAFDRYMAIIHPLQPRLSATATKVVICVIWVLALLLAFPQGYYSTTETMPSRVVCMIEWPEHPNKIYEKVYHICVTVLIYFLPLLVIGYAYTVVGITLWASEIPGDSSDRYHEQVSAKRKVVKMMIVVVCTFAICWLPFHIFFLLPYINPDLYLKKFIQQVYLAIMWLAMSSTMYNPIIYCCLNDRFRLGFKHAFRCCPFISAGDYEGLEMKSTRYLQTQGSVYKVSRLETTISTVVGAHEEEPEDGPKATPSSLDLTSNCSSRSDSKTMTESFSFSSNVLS

| Compound | IC50 [nM] |
| --- | --- |
| O=C(NCCN1CCNCC1)C(Cc1c[nH]c2ccccc12)NCc1cc2ccccc2o1 (centres unmarked) [Example 193, 2-[(Benzofuran-2-ylmethyl)-amino]-3-(1H-indol-3-yl)-N-(2-piperazin-1-yl-ethyl)-propionamide] | > 10000 |
| O=C(NC(CO)CC1CCCCC1)C(Cc1c[nH]c2ccccc12)NCc1cc2ccccc2o1 (centres unmarked) [Example 277, 2-[(Benzofuran-2-ylmethyl)-amino]-N-(2-cyclohexyl-1-hydroxymethyl-ethyl)-3-(1H-indol-3-yl)-propionamide] | 2200 |
| O=C(NCc1ccccc1)C(Cc1c[nH]c2ccccc12)NCc1cc2ccccc2o1 (centres unmarked) [Example 254, 2-[(Benzofuran-2-ylmethyl)-amino]-N-benzyl-3-(1H-indol-3-yl)-propionamide] | 22 |
| Cc1cccc(CNC(=O)C(Cc2c[nH]c3ccccc23)NCc2cc3ccccc3o2)c1 (centres unmarked) [Example 252, 2-[(Benzofuran-2-ylmethyl)-amino]-3-(1H-indol-3-yl)-N-(3-methyl-benzyl)-propionamide] | 33 |
| CC(NC(=O)C(Cc1c[nH]c2ccccc12)NCc1cc2ccccc2o1)C1CCCCC1 (centres unmarked) [Example 294, 2-[(Benzofuran-2-ylmethyl)-amino]-N-(1-cyclohexyl-ethyl)-3-(1H-indol-3-yl)-propionamide] | 58 |
| CC(Cc1ccc(Cl)cc1)NC(=O)C(Cc1c[nH]c2ccccc12)NCc1cc2ccccc2o1 (centres unmarked) [Example 282, 2-[(Benzofuran-2-ylmethyl)-amino]-N-[2-(4-chloro-phenyl)-1-methyl-ethyl]-3-(1H-indol-3-yl)-propionamide] | 833 |
| CC(CNC(=O)C(Cc1c[nH]c2ccccc12)NCc1cc2ccccc2o1)c1ccccc1 (centres unmarked) [Example 233, 2-[(Benzofuran-2-ylmethyl)-amino]-3-(1H-indol-3-yl)-N-(2-phenyl-propyl)-propionamide] | 2000 |
| O=C(NCC1CC2CCC1C2)C(Cc1c[nH]c2ccccc12)NCc1cc2ccccc2o1 (centres unmarked) [Example 266, 2-[(Benzofuran-2-ylmethyl)-amino]-N-bicyclo[2.2.1]-hept-2-ylmethyl-3-(1H-indol-3-yl)-propionamide] | 633 |
| CC(NC(=O)C(Cc1c[nH]c2ccccc12)NCc1cc2ccccc2o1)c1ccsc1 (centres unmarked) [Example 236, 2-[(Benzofuran-2-ylmethyl)-amino]-3-(1H-indol-3-yl)-N-(1-thiophen-3-yl-ethyl)-propionamide] | 7 |
| O=C(NCC1CCCO1)C(Cc1c[nH]c2ccccc12)NCc1cc2ccccc2o1 (centres unmarked) [Example 223, 2-[(Benzofuran-2-ylmethyl)-amino]-3-(1H-indol-3-yl)-N-(tetrahydro-furan-2-ylmethyl)-propionamide] | > 10000 |
| Cc1ccc(CCNC(=O)C(Cc2c[nH]c3ccccc23)NCc2cc3ccccc3o2)cc1 (centres unmarked) [Example 300, 2-[(Benzofuran-2-ylmethyl)-amino]-3-(1H-indol-3-yl)-N-(2-p-tolyl-ethyl)-propionamide] | 256 |
| O=C(CNC(=O)C(Cc1c[nH]c2ccccc12)NCc1cc2ccccc2o1)c1ccccc1 (centres unmarked) [Example 237, 2-[(Benzofuran-2-ylmethyl)-amino]-3-(1H-indol-3-yl)-N-(2-oxo-2-phenyl-ethyl)-propionamide] | 5340 |

Same assay, conditions: Table 4; [125I]Bolton-Hunter substance P displacement, human IM9 cells; read-out: IC50 (nM) hNK1

| Compound | IC50 [nM] |
| --- | --- |
| CC(NC(=O)C(C)(Cc1c[nH]c2ccccc12)NCc1cncc2ccccc12)c1ccccc1 (centres unmarked) [compound 318, 3-(1H-Indol-3-yl)-2-[(isoquinolin-4-ylmethyl)-amino]-2-methyl-N-(1-phenyl-ethyl)-propionamide] | 1600 |
| CC(NC(=O)C(C)(Cc1c[nH]c2ccccc12)NCc1ccccc1OCc1cccnc1)c1ccccc1 (centres unmarked) [compound 324, 3-(1H-Indol-3-yl)-2-methyl-N-(1-phenyl-ethyl)-2-[2-(pyridin-3-ylmethoxy)-benzylamino]-propionamide] | 2970 |
| CC(NC(=O)C(C)(Cc1c[nH]c2ccccc12)NCc1ccccc1OCc1ccccn1)c1ccccc1 (centres unmarked) [compound 323, 3-(1H-Indol-3-yl)-2-methyl-N-(1-phenyl-ethyl)-2-[2-(pyridin-2-ylmethoxy)-benzylamino]-propionamide] | 3180 |
| CC(NC(=O)C(C)(Cc1c[nH]c2ccccc12)NCc1ccc(OCCN(C)C)cc1)c1ccccc1 (centres unmarked) [compound 331, 2-[4-(2-Dimethylamino-ethoxy)-benzylamino]-3-(1H-indol-3-yl)-2-methyl-N-(1-phenyl-ethyl)-propionamide] | > 10000 |
| CCOC(=O)Nc1ccccc1CNC(C)(Cc1c[nH]c2ccccc12)C(=O)NC(C)c1ccccc1 (centres unmarked) [compound 329, (2-{[2-(1H-Indol-3-yl)-1-methyl-1-(1-phenyl-ethylcarbamoyl)-ethylamino]-methyl}-phenyl)-carbamic acid ethyl ester] | 4190 |
| 2-(4-Chloro-3-sulfamoyl-benzylamino)-3-(1H-indol-3-yl)-2-methyl-N-(1-phenyl-ethyl)-propionamide [compound 336] | 4230 |
| CC(NC(=O)C(C)(Cc1c[nH]c2ccccc12)NCc1ccc2ccccc2c1)c1ccccc1 (centres unmarked) [compound 309, 3-(1H-Indol-3-yl)-2-methyl-2-[(naphthalen-2-ylmethyl)-amino]-N-(1-phenyl-ethyl)-propionamide] | 169 |

Same assay, conditions: Table 5; [125I]Bolton-Hunter substance P displacement, human IM9 cells; read-out: IC50 (nM) hNK1

| Compound | IC50 [nM] |
| --- | --- |
| CC(NC(=O)C(Cc1c[nH]c2ccccc12)NCc1ccc(C=Cc2ccccc2)o1)c1ccccc1 (centres unmarked) [compound 362] | > 10000 |

Same assay, conditions: human NK1 receptor, IM9 cells, [125I]Bolton-Hunter substance P; read-out: IC50 (nM) hNK1

| Compound | IC50 [nM] |
| --- | --- |
| CC(Cc1c[nH]c2ccccc12)(NCc1cc2ccccc2o1)C(=O)NC1CCc2ccccc2C1 (centres unmarked) [compound 111, 2-[(Benzofuran-2-ylmethyl)-amino]-3-(1H-indol-3-yl)-2-methyl-N-(1,2,3,4-tetrahydro-naphthalen-2-yl)-propionamide] | > 10000 |
| CC(Cc1c[nH]c2ccccc12)(NCc1cc2ccccc2o1)C(=O)NCCc1ccc(O)c(O)c1 (centres unmarked) [compound 161, 2-[(Benzofuran-2-ylmethyl)-amino]-N-[2-(3,4-dihydroxy-phenyl)-ethyl]-3-(1H-indol-3-yl)-2-methyl-propionamide] | > 10000 |
| CC(Cc1c[nH]c2ccccc12)(NCc1cc2ccccc2o1)C(=O)NCC1CCCCC1O (centres unmarked) [compound 49, 2-[(Benzofuran-2-ylmethyl)-amino]-N (2-hydroxy-cyclohexylmethyl)-3-(1H-indol-3-yl)-2-methyl-propionamide] | 1550 |
| CC(Cc1c[nH]c2ccccc12)(NCc1cc2ccccc2o1)C(=O)NCCN1CCNC1=S (centres unmarked) [compound 132, 2-[(Benzofuran-2-ylmethyl)-amino]-3-(1H-indol-3-yl)-2-methyl-N-[2-(2-thioxo-imidazolidin-1-yl)-ethyl]-propionamide] | 6030 |
| CC(Cc1c[nH]c2ccccc12)(NCc1cc2ccccc2o1)C(=O)NCc1ccc([N+](=O)[O-])cc1 (centres unmarked) [compound 119, 2-[(Benzofuran-2-ylmethyl)-amino]-3-(1H-indol-3-yl)-2-methyl-N-(4-nitro-benzyl)-propionamide] | 89 |
| CC(Cc1c[nH]c2ccccc12)(NCc1cc2ccccc2o1)C(=O)NCCC1CCCCC1 (centres unmarked) [compound 70, 2-[(Benzofuran-2-ylmethyl)-amino]-N-(2-cyclohexyl-ethyl)-3-(1H-indol-3-yl)-2-methyl-propionamide] | 216 |
| CC(Cc1c[nH]c2ccccc12)(NCc1cc2ccccc2o1)C(=O)NCC1CCNCC1 (centres unmarked) [compound 156, 2-[(Benzofuran-2-ylmethyl)-amino]-3-(1H-indol-3-yl)-2-methyl-N-piperidin-4-ylmethyl-propionamide] | > 10000 |
| CC(Cc1c[nH]c2ccccc12)(NCc1cc2ccccc2o1)C(=O)NC1CC1c1ccccc1 (centres unmarked) [compound 107, 2-[(Benzofuran-2-ylmethyl)-amino]-3-(1H-indol-3-yl)-2-methyl-N-(2-phenyl-cyclopropyl)-propionamide] | 4150 |
| CC(NC(=O)C(C)(Cc1c[nH]c2ccccc12)NCc1cc2ccccc2o1)c1cccc(N(C)C)c1 (centres unmarked) [compound 40, 2-[(Benzofuran-2-ylmethyl)-amino)-N-[1-(3-dimethylamino-phenyl)-ethyl]-3-(1H-indol-3-yl)-2-methyl-propionamide] | 1060 |
| CC(Cc1c[nH]c2ccccc12)(NCc1cc2ccccc2o1)C(=O)NCc1ccc(Cl)c(Cl)c1 (centres unmarked) [compound 175, 2-[(Benzofuran-2-ylmethyl)-amino]-N-(3,4-dichloro-benzyl)-3-(1H-indol-3-yl)-2-methyl-propionamide] | 96 |
| Cc1[nH]cnc1CCNC(=O)C(C)(Cc1c[nH]c2ccccc12)NCc1cc2ccccc2o1 (centres unmarked) [compound 101, 2-[(Benzofuran-2-ylmethyl)-amino]-3-(1H-indol-3-yl)-2-methyl-N-[2-(5-methyl-1H-imidazol-4-yl)-ethyl]-propionamide] | > 10000 |
| CC(Cc1c[nH]c2ccccc12)(NCc1cc2ccccc2o1)C(=O)NCc1ccc(OC(F)(F)F)cc1 (centres unmarked) [compound 66, 2-[(Benzofuran-2-ylmethyl)-amino]-3-(1H-indol-3-yl)-2-methyl-N-(4-trifluoromethoxy-benzyl)-propionamide] | 3440 |
| Cc1cc(C)c(CNC(=O)C(C)(Cc2c[nH]c3ccccc23)NCc2cc3ccccc3o2)cn1 (centres unmarked) [compound 169, 2-[(Benzofuran-2-ylmethyl)-amino]-N-(4,6-dimethyl-pyridin-3-ylmethyl)-3-(1H-indol-3-yl)-2-methyl-propionamide] | 6020 |
| CC(Cc1c[nH]c2ccccc12)(NCc1cc2ccccc2o1)C(=O)NCCCN1CCN(c2ccccn2)CC1 (centres unmarked) [compound 87, 2-[(Benzofuran-2-ylmethyl)-amino]-3-(1H-indol-3-yl)-2-methyl-N-[3-(4-pyridin-2-yl-piperazin-1-yl)-propyl]-propionamide] | > 10000 |
| COc1ccc(C(C)NC(=O)C(C)(Cc2c[nH]c3ccccc23)NCc2cc3ccccc3o2)cc1 (centres unmarked) [compound 35, 2-[(Benzofuran-2-ylmethyl)-amino]-3-(1H-indol-3-yl)-N-[1-(4-methoxy-phenyl)-ethyl]-2-methyl-propionamide] | 31 |
